Source: patent publication US20240239755A1, “SUBSTITUTED PYRIDAZINONES, SALTS OR N-OXIDES THEREOF AND THEIR USE AS HERBICIDALLY ACTIVE SUBSTANCES” (Bayer Aktiengesellschaft, priority 2021, published 2024)

Assays:
Format in all cases: in vivo
Stellaria media (STEME) [1] = test: Herbicidal post-emergence action, 1280 g/ha (Table B9); conditions: visual assessment after ca. 3 weeks vs untreated controls
Text: (§1) Seeds of mono- and dicotyledonous weed plants were sown in plastic pots (double sowings with one species of mono- and one species of dicotyledonous weed plants per pot), in sandy loam, covered with soil and grown under controlled growth conditions. 2 to 3 weeks after sowing, the test plants were sprayed in the single-leaf stage. The compounds according to the invention, formulated in the form of wettable powders (WP) or as emulsifiable concentrates (EC), were sprayed onto the green plant parts as an aqueous suspension or as an emulsion, with the addition of 0.5% of an additive, at an application rate of 600 litres of water per hectare (converted). The test plants were placed in the greenhouse for ca. 3 weeks under optimum growth conditions, and then the effect of the preparations was assessed visually in comparison with untreated controls (herbicidal effect in percent (%): 100% effect=plants have died, 0% effect=as control plants). Tables B1 to B11 below, show the effects of selected compounds of the general formula (I) according to Table 1 on various harmful plants using an application rate corresponding to 1280 g/ha obtained by the experimental procedure mentioned above.

[2] = test system: Matricaria inodora (MATIN); test: Herbicidal post-emergence action, 1280 g/ha (Table B6); conditions: visual assessment after ca. 3 weeks vs untreated controls
Text: as §1

[3] = test system: Abutilon theophrasti (ABUTH); test: Herbicidal post-emergence action, 1280 g/ha (Table B1); conditions: visual assessment after ca. 3 weeks vs untreated controls
Text: as §1

[4] = test system: Matricaria inodora (MATIN); test: Herbicidal pre-emergence action, 1280 g/ha (Table A6); conditions: visual grading after ca. 3 weeks vs untreated controls
Text: (§2) Seeds of mono- and dicotyledonous weed plants were sown in plastic pots (double sowings with one species of mono- and one species of dicotyledonous weed plants per pot), in sandy loam, and covered with soil. The compounds according to the invention, formulated in the form of wettable powders (WP) or as emulsifiable concentrates (EC), were applied to the surface of the covering soil as an aqueous suspension or as an emulsion, with the addition of 0.5% of an additive, at an application rate of 600 litres of water per hectare (converted). Following treatment, the pots were placed in a greenhouse and kept under optimum growth conditions for the test plants. The visual grading of the damage to the test plants was carried out after ca. 3 weeks in comparison to untreated controls (herbicidal effect in percent (%): 100% effect=plants have died, 0% effect=as control plants). Tables A1 to A11 below, show the effects of selected compounds of the general formula (I) according to Table 1 on various harmful plants and an application rate corresponding to 1280 g/ha obtained by the experimental procedure mentioned above.

[5] = test system: Amaranthus retroflexus (AMARE); test: Herbicidal pre-emergence action, 1280 g/ha (Table A11); conditions: visual grading after ca. 3 weeks vs untreated controls
Text: as §2

Lolium rigidum (LOLRI) = test: Herbicidal pre-emergence action, 1280 g/ha (Table A5); conditions: visual grading after ca. 3 weeks vs untreated controls
Text: as §2

Stellaria media (STEME) [6] = test: Herbicidal pre-emergence action, 320 g/ha, STEME; conditions: visual grading after ca. 3 weeks
Text: as §2, with “plants).” for “plants). Tables A1 to A11 below, show the effects of selected compounds of the general formula (I) according to Table 1 on various harmful plants and an application rate corresponding to 1280 g/ha obtained by the experimental procedure mentioned above.”
Tables C1 to C6 below, show the effects of selected compounds of the general formula (I) according to Table 1 on various harmful plants using an application rate corresponding to 320 g/ha obtained by the experimental procedure mentioned above.

Kochia scoparia (KCHSC) [7] = test: Herbicidal post-emergence action, 1280 g/ha (Table B4); conditions: visual assessment after ca. 3 weeks vs untreated controls
Text: as §1

[8] = test system: Abutilon theophrasti (ABUTH); test: Herbicidal post-emergence action, 320 g/ha, ABUTH; conditions: visual grading after ca. 3 weeks
Text: as §1, with “plants).” for “plants). Tables B1 to B11 below, show the effects of selected compounds of the general formula (I) according to Table 1 on various harmful plants using an application rate corresponding to 1280 g/ha obtained by the experimental procedure mentioned above.”
(§3) Tables D1 to D8 below, show the effects of selected compounds of the general formula (I) according to Table 1 on various harmful plants using an application rate corresponding to 320 g/ha obtained by the experimental procedure mentioned above.

Stellaria media (STEME) [9] = test: Herbicidal pre-emergence action, 1280 g/ha (Table A9); conditions: visual grading after ca. 3 weeks vs untreated controls
Text: as §2

[10] = test system: Amaranthus retroflexus (AMARE); test: Herbicidal post-emergence action, 1280 g/ha, AMARE; conditions: visual grading vs untreated controls
Text: as §1, with “plants).” for “plants). Tables B1 to B11 below, show the effects of selected compounds of the general formula (I) according to Table 1 on various harmful plants using an application rate corresponding to 1280 g/ha obtained by the experimental procedure mentioned above.”
(§4) Tables B1 to B11 below, show the effects of selected compounds of the general formula (I) according to Table 1 on various harmful plants using an application rate corresponding to 1280 g/ha obtained by the experimental procedure mentioned above.

Stellaria media (STEME) [11] = test: Herbicidal post-emergence action, 320 g/ha, STEME; conditions: visual grading after ca. 3 weeks
Text: as §1, with “plants).” for “plants). Tables B1 to B11 below, show the effects of selected compounds of the general formula (I) according to Table 1 on various harmful plants using an application rate corresponding to 1280 g/ha obtained by the experimental procedure mentioned above.”
as §3

Veronica persica (VERPE) = test: Herbicidal post-emergence action, 1280 g/ha, VERPE; conditions: visual grading vs untreated controls
Text: as §1, with “plants).” for “plants). Tables B1 to B11 below, show the effects of selected compounds of the general formula (I) according to Table 1 on various harmful plants using an application rate corresponding to 1280 g/ha obtained by the experimental procedure mentioned above.”
as §4

[12] = test system: Amaranthus retroflexus (AMARE); test: Herbicidal post-emergence action, 320 g/ha, AMARE; conditions: visual grading after ca. 3 weeks
Text: as §1, with “plants).” for “plants). Tables B1 to B11 below, show the effects of selected compounds of the general formula (I) according to Table 1 on various harmful plants using an application rate corresponding to 1280 g/ha obtained by the experimental procedure mentioned above.”
as §3

Kochia scoparia (KCHSC) [13] = test: Herbicidal pre-emergence action, 1280 g/ha (Table A4); conditions: visual grading after ca. 3 weeks vs untreated controls
Text: as §2

Compound | herbicidal effect STEME (Stellaria media (STEME) [1]) | herbicidal effect MATIN [2] | herbicidal effect ABUTH [3] | herbicidal effect MATIN [4] | herbicidal effect AMARE [5] | herbicidal effect LOLRI (Lolium rigidum (LOLRI)) | herbicidal effect STEME (Stellaria media (STEME) [9]) | herbicidal effect AMARE [10] | further results
CCOC(=O)Oc1c(C)nn(C)c(=O)c1Oc1cccc(C)c1C1CC1 [Example I-066] | 100% | 90% | 90% | 90% | 100% |  |  |  | 
Cc1nn(C)c(=O)c(Oc2cccc(F)c2C2CC2)c1O [Example I-073] | 100% | 90% | 100% | 90% |  | 90% | 90% | 90% | herbicidal effect STEME (Stellaria media (STEME) [6]): 90%; herbicidal effect KCHSC (Kochia scoparia (KCHSC) [7]): 90%; herbicidal effect ABUTH [8]: 100%
Cc1nn(C)c(=O)c(Oc2cccc(F)c2Cl)c1O [Example I-025] |  |  |  | 100% |  |  | 100% |  | herbicidal effect STEME (Stellaria media (STEME) [6]): 100%
Cc1nn(C)c(=O)c(Oc2ccccc2OC(F)F)c1O [Example I-082] | 100% | 90% | 100% | 90% |  | 90% | 90% | 90% | herbicidal effect STEME (Stellaria media (STEME) [11]): 90%; herbicidal effect VERPE (Veronica persica (VERPE)): 90%; herbicidal effect ABUTH [8]: 90%
CCOC(=O)Oc1c(C)nn(C)c(=O)c1Oc1ccc(C)cc1C1CC1 [Example I-038] |  |  | 90% |  |  |  |  | 90% | 
Cc1nn(C)c(=O)c(Oc2cccc(C(F)(F)F)c2)c1O [Example I-005] | 90% |  |  |  | 100% |  |  | 100% | herbicidal effect AMARE [12]: 90%
Cc1cccc(Cl)c1Oc1c(O)c(C)nn(C)c1=O [Example I-023] | 90% |  |  | 90% | 90% |  | 90% | 90% | 
Cc1nn(C)c(=O)c(Oc2c(F)cccc2C2CC2)c1O [Example I-084] | 90% |  | 90% |  |  | 90% |  | 90% | herbicidal effect VERPE (Veronica persica (VERPE)): 90%; herbicidal effect KCHSC (Kochia scoparia (KCHSC) [7]): 90%; herbicidal effect AMARE [12]: 90%
Cc1nn(C)c(=O)c(Oc2ccccc2)c1O [Example I-001] |  |  |  |  | 90% |  |  |  | 
Cc1nn(C)c(=O)c(Oc2cc(Cl)cc(Cl)c2Cl)c1OC(=O)C(C)C [Example I-100] | 100% |  | 90% |  |  | 90% | 100% | 90% | herbicidal effect STEME (Stellaria media (STEME) [11]): 90%; herbicidal effect STEME (Stellaria media (STEME) [6]): 100%
Cc1ccc(Oc2c(O)c(C)nn(C)c2=O)c(C2CC2)c1 [Example I-037] | 90% |  |  |  |  |  |  |  | 
Cc1ccc(C2CC2)c(Oc2c(O)c(C)nn(C)c2=O)c1 [Example I-039] | 90% |  |  |  | 90% |  |  | 90% | 
Cc1nn(C)c(=O)c(Oc2cc(F)cc(F)c2Br)c1OC(=O)C(C)C [Example I-099] | 90% | 90% | 100% | 90% |  |  | 90% | 90% | herbicidal effect STEME (Stellaria media (STEME) [11]): 90%; herbicidal effect STEME (Stellaria media (STEME) [6]): 90%; herbicidal effect VERPE (Veronica persica (VERPE)): 90%; herbicidal effect KCHSC (Kochia scoparia (KCHSC) [7]): 90%
COc1ccccc1Oc1c(O)c(C)nn(C)c1=O [Example I-024] | 90% |  |  |  |  | 90% | 90% | 90% | herbicidal effect VERPE (Veronica persica (VERPE)): 90%
Cc1nn(C)c(=O)c(Oc2cc(F)ccc2Br)c1OC(=O)C(C)C [Example I-089] |  | 90% | 90% | 100% |  | 90% | 90% | 100% | 
Cc1nn(C)c(=O)c(Oc2cccc(Cl)c2)c1O [Example I-004] | 100% |  | 90% |  | 90% |  |  |  | herbicidal effect KCHSC (Kochia scoparia (KCHSC) [13]): 90%; herbicidal effect STEME (Stellaria media (STEME) [11]): 90%
Cc1nn(C)c(=O)c(Oc2cc(F)cc(F)c2Br)c1O [Example I-090] | 90% | 90% |  | 90% | 90% | 90% | 100% | 90% | herbicidal effect STEME (Stellaria media (STEME) [6]): 90%
CCOC(=O)Oc1c(C)nn(C)c(=O)c1Oc1cc(C)ccc1C1CC1 [Example I-040] |  |  |  |  |  |  |  | 90% | 
